Reference: PMC10135378, “Synthesis of Novel N-Heterocyclic Carbene-Ruthenium (II) Complexes, “Precious” Tools with Antibacterial, Anticancer and Antioxidant Properties” (Antibiotics, 2023)
Values belong to the compound of their own block, whether it stands above or below them.

Assays:
MDA-MB-231 cells = assay: MTT assay, anticancer activity on MDA-MB-231 cells; assay type: cell-based, human; settings: MTT, 72 h exposure, 0.1-100 µM
Method: (§1) The anticancer activity of all the synthesized Ru-NHC complexes (RANHC I-VI) was studied in two human breast cancer cell lines, namely the estrogen receptor positive (ER+) MCF-7 cells and the triple negative MDA-MB-231 cells (ER-, PR-, and HER-2/Neu not overexpressed), and neuroblastoma cells, i.e., SH-SY5Y. First, the cells were exposed for 72 h at different concentrations of the studied complexes (from 0.1 to 100 µM) and then their viability was checked by MTT assay.
(§2) The adopted cells (breast cancer MCF-7 and MDA-MB-231 and human mammary epithelial MCF-10A cells) were purchased from American Type Culture Collection (ATCC, Manassas, VA, USA) and cultured as indicated. The mouse embryonic fibroblast BALB/3T3 and neuroblastoma SH-SY5Y were also obtained from American Type Culture Collection (ATCC, Manassas, VA, USA) and cultured in DMEM high glucose supplemented with 100 U mL^−1 penicillin/streptomycin and 10% bovine calf serum (BCS) or 10% fetal bovine serum (FBS), respectively.
(§3) MTT assay (Sigma Aldrich (St. Louis, MO, USA)) was used for the in vitro anticancer activity evaluation, as previously reported. The Ru-NHC complexes were employed at different concentrations (0.1–1–10–25–50–100 μM) for 72 h. The IC50 values were calculated from the percent (%) of control using GraphPad Prism 9 (GraphPad Software, La Jolla, CA, USA).

MCF-7 cells = assay: MTT assay, anticancer activity on MCF-7 cells; assay type: cell-based, human; settings: 72 h exposure, 0.1-100 µM
Method: as §1, §2, §3

SH-SY5Y cells = assay: MTT assay, anticancer activity on SH-SY5Y neuroblastoma cells; assay type: cell-based; settings: 72 h exposure, 0.1-100 µM
Method: as §1, §2, §3

MCF-10A cells = assay: MTT assay, non-tumoral MCF-10A cells; assay type: cell-based, human; settings: 72 h exposure
Excerpt: (§4) Additionally, we investigated the selectivity of all the synthesized Ru-NHC complexes on the cancer cells by studying their capability to interfere with the growth of two non-tumoral cells, namely the MCF-10A and BALB/3T3 cells.
as §2, §3

BALB/3T3 cells = assay: MTT assay, non-tumoral BALB/3T3 fibroblasts; assay type: cell-based; settings: 72 h exposure, non-tumoral mouse embryonic fibroblasts
Excerpt: as §4, §2, §3

[1] = DPPH radical scavenging assay; settings: 30 min, room temperature, 517 nm
Method: Generally, the DPPH radical is able to accept hydrogen radicals or an electron, turning into a stable molecule. The interaction with Ru-NHC complexes induces the reduction of DPPH radical intensity measured at 517 nm, due to the conversion of the purple DPPH radical into its corresponding yellow hydrazine form.
The radical scavenging properties of Ru-NHC complexes on the 1,1-diphenyl-2-picryl-hydrazil (DPPH) radical were evaluated as described by Fazio et al., with minor corrections. Then, 20 μL of each Ru complex, properly dissolved in DMSO, were mixed with methanol DPPH 0.1 mM (180 μL) in a 48-well plate obtaining […] different concentrations (10, 50, 100, 200 and 300 µg/mL). Next, 20 μL of DMSO in 180 μL of DPPH methanol solution was diluted as the control. The mixture was vigorously shaken and incubated (room temperature, 30 min, in the dark). The scavenging activity was measured at 517 nm, using a microplate reader. DPPH radical scavenging was expressed as inhibition percentages (%IDPPH) for the Ru complexes compared to the initial concentration of DPPH (control) according to the formula: %IDPPH=A0−A/A0×100 where A0 is the absorbance at 517 nm of the control reaction and A is the absorbance at 517 nm in the presence of samples.
The obtained IDPPH percentages allowed the IC50 values determination, using GraphPad Prism 9 software (GraphPad Inc., San Diego, CA, USA). Trolox was employed as a positive control.

[2] = ABTS radical scavenging assay; settings: 5 min, room temperature, 730 nm
Excerpt: To further analyze the Ru-NHC complexes antiradical potential, we examined their capability to interfere with the ABTS radical cation, a well-known protonated radical with a characteristic maximal absorbance at 730 nm, which diminishes with the scavenging of the radical proton. The assay measures radical scavenging by the electron donation. The outcomes in terms of ABTS% scavenging activity are reported in Figure 7 and IC50 values of Ru-NHC complexes, together with the standard Trolox, on ABTS radical are summarized in Table 3 and Table S3.
The radical scavenging properties of the Ru-NHC complexes on a 2,2′-azino-bis(3-ethylbenzothiazoline-6-sulfonate) radical cation (ABTS^•+) were calculated as described by Fazio et al., with few adjustments. Briefly, 2 mM ABTS and 70 mM potassium persulfate water solutions were mixed and incubated to obtain ABTS^•+ radical stock solution (16 h, room temperature, in the dark). ABTS solution was diluted in ethanol to obtain an absorbance of 0.70 ± 0.02 at 730 nm, prior to use. Then, 2 μL of each Ru-NHC complex at different concentrations, properly dissolved in DMSO, were mixed with 198 μL of the ABTS^•+ solution in a 48-well plate obtaining the following concentrations: 0.1, 1, 10, 50, and 100 µg/mL. The solutions were vigorously shaken and incubated (5 min, room temperature, in the dark). The ABTS scavenging activity was determined at 730 nm, using a microplate reader. The control was prepared mixing 2 μL of DMSO with 198 μL of the ABTS^•+ solution. The ABTS radical scavenging was expressed as inhibition percentages (%IABTS) of each complex compared to the control, according to the formula: %IABTS=A0−A/A0×100 where A0 is the absorbance at 730 nm of the control reaction and A is the absorbance at 730 nm in the presence of samples.
IC50 values for the Ru complexes were calculated from the %IABTS using GraphPad Prism 9 software (GraphPad Inc., San Diego, CA, USA). Trolox was employed as the positive control.

[3] = system: Escherichia coli (ATCC 25922); assay: MIC/MBC broth dilution, E. coli; assay type: cell-based; settings: control for strain sensitivity
Method: (§5) One Gram-negative (Escherichia coli (ATCC® 25922TM)) and two Gram-positive bacterial strains (Enterococcus faecalis (ATCC® 19433TM) and Staphylococcus aureus (ATCC® 23235TM)] were used for MIC and MBC values determination, according to CLSI guidelines. MIC represents the lowest concentration of compound inhibiting the visible microbial growth and expressed as μg/mL; MBC is the lowest concentration able to kill the bacteria. Both determinations were performed by the broth dilution method. Bacteria were grown overnight in LB medium (2%), then diluted to a density of […] colony forming units (CFUs) per mL, plated in sterile 96-well microplates, obtaining about 10^5 cells/ well. Increasing concentrations of the Ru-NHC complexes (1, 10, 25, 50, 70, 100 µg/mL) were used. After incubation at 37 °C for 18 h (overnight), bacterial growth was checked at a wavelength of 600 nm using a Multiskan spectrophotometer (model Multiskan Ex Microplate; Thermo Scientific, Nyon, Switzerland) and MIC or MBC values were determined, comparing cell density with a positive control (bacterial cells grown in LB medium were added with only the vehicle, DMSO). Each experiment was carried out five times, in triplicate. Ampicillin (Sigma Aldrich A9393) was used as the control for strain sensitivity.

[4] = system: Staphylococcus aureus (ATCC 23235); assay: MIC/MBC broth dilution, S. aureus; assay type: cell-based; settings: control for strain sensitivity
Method: as §5

[5] = system: Enterococcus faecalis (ATCC 19433); assay: MIC/MBC broth dilution, E. faecalis; assay type: cell-based; settings: control for strain sensitivity
Method: as §5

Structure (SMILES): N.N.[Cl][Pt][Cl] [Cisplatin, reference compound]
IC50 (MDA-MB-231 cells): 32.1 ± 1 µM
IC50 (MCF-7 cells): 26.2 ± 1.1 µM
IC50 (SH-SY5Y cells): 18.8 ± 0.9 µM
IC50 (MCF-10A cells): 80.24 ± 0.8 µM
IC50 (BALB/3T3 cells): 21.6 ± 1.2 µM

IC50 [1]: 99.91 ± 0.9 µM
IC50 [2]: 92.3 ± 0.9 µM
Structure (SMILES): Cc1c(C)c2c(c(C)c1O)CCC(C)(C(=O)O)O2 (stereo not shown) [Trolox, reference compound]

Structure (SMILES): CC1(C)S[C@@H]2[C@H](NC(=O)[C@H](N)c3ccccc3)C(=O)N2[C@H]1C(=O)O [ampicillin, Ampicillin, reference compound]
strain sensitivity to ampicillin, E. coli [3]: ampicillin-sensible
strain sensitivity to ampicillin, S. aureus [4]: ampicillin-sensible
strain sensitivity to ampicillin, E. faecalis [5]: ampicillin-sensible
